The values below are quoted from earlier work in patent US12691128B2, “Methods of treating eosinophilic esophagitis and reducing candidiasis” (Ellodi Pharmaceuticals, L.P., priority 2019, dated 2026).

Where two headings read alike, the source gives them in different places.

For one data set, the target named is T1, glucocorticoid receptor (Homo sapiens, UniProt P04150).
T1 sequence (P04150 1-777): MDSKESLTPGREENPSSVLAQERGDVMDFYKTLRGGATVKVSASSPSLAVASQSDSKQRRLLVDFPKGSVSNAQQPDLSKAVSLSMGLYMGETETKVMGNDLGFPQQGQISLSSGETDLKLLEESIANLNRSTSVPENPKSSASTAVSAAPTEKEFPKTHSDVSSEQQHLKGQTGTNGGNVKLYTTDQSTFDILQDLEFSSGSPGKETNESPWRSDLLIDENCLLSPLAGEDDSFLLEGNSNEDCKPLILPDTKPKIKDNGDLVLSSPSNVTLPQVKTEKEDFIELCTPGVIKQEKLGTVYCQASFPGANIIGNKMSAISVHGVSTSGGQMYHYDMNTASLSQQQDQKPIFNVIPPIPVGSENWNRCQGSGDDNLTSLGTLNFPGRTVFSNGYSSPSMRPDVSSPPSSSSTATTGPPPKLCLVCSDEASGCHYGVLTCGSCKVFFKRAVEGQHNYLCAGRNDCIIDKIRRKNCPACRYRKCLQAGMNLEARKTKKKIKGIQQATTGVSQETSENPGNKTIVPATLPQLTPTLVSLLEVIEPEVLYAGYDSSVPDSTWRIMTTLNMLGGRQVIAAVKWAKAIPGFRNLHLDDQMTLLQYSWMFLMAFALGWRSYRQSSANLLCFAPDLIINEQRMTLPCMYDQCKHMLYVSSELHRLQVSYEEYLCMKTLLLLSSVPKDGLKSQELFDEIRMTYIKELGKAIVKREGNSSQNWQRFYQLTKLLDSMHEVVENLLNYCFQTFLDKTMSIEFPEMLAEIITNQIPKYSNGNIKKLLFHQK
Details: reference not given here.

Data set [1] concerns the target cytochrome (CYP) isoenzyme 2C9 (Homo sapiens, UniProt P11712).
For a further data set, the target named is CYP3A4 (Homo sapiens, UniProt P08684).
Chain of CYP3A4 (P08684 whole entry): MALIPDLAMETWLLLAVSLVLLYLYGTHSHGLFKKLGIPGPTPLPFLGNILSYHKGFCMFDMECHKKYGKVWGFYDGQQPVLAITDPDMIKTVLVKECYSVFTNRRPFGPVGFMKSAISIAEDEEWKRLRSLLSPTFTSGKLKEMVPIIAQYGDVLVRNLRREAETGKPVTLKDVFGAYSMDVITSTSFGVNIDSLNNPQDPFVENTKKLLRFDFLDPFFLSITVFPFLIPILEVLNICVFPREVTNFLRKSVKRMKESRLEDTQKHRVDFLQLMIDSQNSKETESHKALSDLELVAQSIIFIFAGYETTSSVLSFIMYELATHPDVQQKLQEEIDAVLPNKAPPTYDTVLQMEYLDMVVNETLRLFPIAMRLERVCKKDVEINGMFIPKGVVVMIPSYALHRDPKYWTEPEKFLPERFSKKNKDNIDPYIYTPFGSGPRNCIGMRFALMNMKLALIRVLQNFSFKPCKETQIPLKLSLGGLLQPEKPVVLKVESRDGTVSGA
For data set [2] the following is noted: reported.

Chain of cytochrome (CYP) isoenzyme 2C9 (P11712 whole entry): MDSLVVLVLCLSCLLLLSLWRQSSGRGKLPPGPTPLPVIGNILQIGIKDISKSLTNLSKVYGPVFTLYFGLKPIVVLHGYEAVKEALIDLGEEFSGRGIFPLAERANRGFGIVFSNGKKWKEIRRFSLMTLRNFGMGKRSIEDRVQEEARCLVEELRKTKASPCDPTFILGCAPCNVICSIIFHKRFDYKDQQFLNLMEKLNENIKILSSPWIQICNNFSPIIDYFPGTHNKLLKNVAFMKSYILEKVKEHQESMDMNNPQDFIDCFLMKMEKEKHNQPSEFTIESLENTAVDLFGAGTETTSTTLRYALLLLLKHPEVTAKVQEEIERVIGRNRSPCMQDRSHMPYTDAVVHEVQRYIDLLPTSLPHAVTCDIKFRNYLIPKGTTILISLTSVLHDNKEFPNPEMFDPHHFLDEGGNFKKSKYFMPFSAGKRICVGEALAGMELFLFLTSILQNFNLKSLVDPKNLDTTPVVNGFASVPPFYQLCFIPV

Regarding `C[C@]12C=CC(=O)C=C1CC[C@@H]1[C@@H]2[C@@H](O)C[C@@]2(C)[C@H]1C[C@H]1O[C@@H](C3CCCCC3)O[C@]12C(=O)CO` [des-CIC], the “Relative Glucocorticoid Receptor Binding Affinity” value on glucocorticoid receptor is recorded as 12 (1200).

Consider `OC(Cn1cncn1)(Cn1cncn1)c1ccc(F)cc1F` [fluconazole], for which, in data set [1], the “Inhibition of cytochrome (CYP) isoenzyme 2C9” value is given as “potent inhibitor”. Moreover, the “Inhibition of CYP3A4” value at CYP3A4 was “moderate inhibitor”.

For the compound `CCC(=O)O[C@]1(C(=O)SCF)[C@H](C)C[C@H]2[C@@H]3C[C@H](F)C4=CC(=O)C=C[C@]4(C)[C@@]3(F)[C@@H](O)C[C@@]21C` [Fluticasone propionate, S-(fluoromethyl)-6α,9-difluoro-11β, 17-dihydroxy-16α-methyl-3-oxoandrosta-1,4-diene-17β-carbothioate, 17-propanoate], on glucocorticoid receptor, the “Relative Glucocorticoid Receptor Binding Affinity” value is 1775. Besides, the Solubility entry by setting is: (acetone, dichloromethane, ethyl acetate and chloroform) “sparingly soluble”; (dimethyl sulfoxide and dimethylformamide) “freely soluble”; (methanol and 95% ethanol) “slightly soluble”; (water) “practically insoluble”. Besides, in data set [2], the Oral bioavailability entry is “less than 1%”.

As for `C[C@]12C=CC(=O)C=C1CC[C@@H]1[C@@H]2[C@@H](O)C[C@@]2(C)[C@H]1CC[C@]2(O)C(=O)CO` [Prednisolone], at glucocorticoid receptor, the “Relative Glucocorticoid Receptor Binding Affinity” value is reported as 12.

Consider `CC1(C)O[C@@H]2C[C@H]3[C@@H]4C[C@H](F)C5=CC(=O)C=C[C@]5(C)[C@H]4[C@@H](O)C[C@]3(C)[C@]2(C(=O)CO)O1` [Flunisolide], for which the “Relative Glucocorticoid Receptor Binding Affinity” value at glucocorticoid receptor is reported as 190.

Turning to `CC1(C)O[C@@H]2C[C@H]3[C@@H]4CCC5=CC(=O)C=C[C@]5(C)[C@@]4(F)[C@@H](O)C[C@]3(C)[C@]2(C(=O)CO)O1` [Triamicinolone acetonide], the “Relative Glucocorticoid Receptor Binding Affinity” value at glucocorticoid receptor is listed as 233.
